Here are results for five compounds from ChEMBL document CHEMBL1132523, “Preventive effect of sesquiterpenes from bay leaf on blood ethanol elevation in ethanol-loaded rat: structure requirement and suppression of gastric emptying” (1999).

A word on the Inhibition: it is the relative decrease from the control value, in per cent.

Several values for one entry are separate records, joined by “and”; a condition that tells them apart may be missing. Equal values may be shown once.

Assay [1] relates to Rattus norvegicus. As to the kind of experiment: Effect of compound (25 mg/kg) on Blood Ethanol level in Ethanol loaded rats after 1 hr. The format is functional.
The test system of assay [2] is Rattus norvegicus. As to the kind of experiment: Effect of compound (50 mg/kg) on Blood Ethanol level in Ethanol loaded rats after 1 hr. The format is functional.
The subject of assay [3] is Rattus norvegicus. The assay can be described thus: Effect of compound (50 mg/kg) on Blood Ethanol level in Ethanol loaded rats after 2 hr. The format is functional.
Assay [4] has as its system Rattus norvegicus. As to the kind of experiment: Effect of compound (25 mg/kg) on Blood Ethanol level in Ethanol loaded rats after 2 hr. The format is functional.
For assay [5], the system named is Rattus norvegicus. As to the kind of experiment: Effect of compound (50 mg/kg) on Blood Ethanol level in Ethanol loaded rats after 30 minutes. The format is functional.
Assay [6] relates to Rattus norvegicus. The assay can be described thus: Effect of compound (25 mg/kg) on Blood Ethanol level in Ethanol loaded rats after 30 minutes. The format is functional.
Assay [7] concerns Rattus norvegicus. The assay can be described thus: Effect of compound (25 mg/kg) on Serum glucose level in glucose loaded rats after 30 minutes. The format is functional, organism-based.
Assay [8] deals with Rattus norvegicus. The assay can be described thus: Effect of compound (50 mg/kg) on Serum glucose level in glucose loaded rats after 2 hr. The format is functional, organism-based.
The subject of assay [9] is Rattus norvegicus. As to the kind of experiment: Effect of compound (25 mg/kg) on Gastric emptying time in Ethanol loaded rats after 30 minutes. The format is functional, Stomach.
Assay [10] deals with Rattus norvegicus. As to the kind of experiment: Effect of compound (50 mg/kg) on Serum glucose level in glucose loaded rats after 1 hr. The format is functional, organism-based.
In assay [11] the test system is Rattus norvegicus. As to the kind of experiment: Effect of compound (25 mg/kg) on Serum glucose level in glucose loaded rats after 1 hr. The format is functional, organism-based.
The test system of assay [12] is Rattus norvegicus. As to the kind of experiment: Effect of compound (25 mg/kg) on Gastric emptying in Ethanol loaded rats after 30 minutes. The format is functional, Stomach.
Assay [13] relates to Rattus norvegicus. The assay can be described thus: Effect of compound (25 mg/kg) on Serum glucose level in glucose loaded rats after 2 hr. The format is functional, organism-based.
Assay [14] deals with Rattus norvegicus. As to the kind of experiment: Effect of compound (50 mg/kg) on Gastric emptying time in Ethanol loaded rats after 30 minutes. The format is functional, Stomach.
The test system of assay [15] is Rattus norvegicus. As to the kind of experiment: Effect of compound (50 mg/kg) on Gastric emptying in Ethanol loaded rats after 30 minutes. The format is functional, Stomach.
The test system of assay [16] is Rattus norvegicus. The assay can be described thus: Effect of compound (50 mg/kg) on Serum glucose level in glucose loaded rats after 30 minutes. The format is functional, organism-based.
The test system of assay [17] is Rattus norvegicus. As to the kind of experiment: Effect of compound (12.5 mg/kg) on Gastric emptying in Ethanol loaded rats after 30 minutes. The format is functional, Stomach.
Assay [18] relates to Rattus norvegicus. As to the kind of experiment: Effect of compound (12.5 mg/kg) on Blood Ethanol level in Ethanol loaded rats after 30 minutes. The format is functional.
In assay [19] the test system is Rattus norvegicus. The assay can be described thus: Effect of compound (12.5 mg/kg) on Blood Ethanol level in Ethanol loaded rats after 2 hr. The format is functional.
Assay [20] relates to Rattus norvegicus. The assay can be described thus: Effect of compound (12.5 mg/kg) on Blood Ethanol level in Ethanol loaded rats after 1 hr. The format is functional.

As for `C=C1CCC[C@]2(C)CC[C@@H](C(C)(C)O)C[C@@H]12` [BETA-EUDESMOL], the Activity in assay [1] is 0.7 mg/mL; in assay [2], 0.73 mg/mL; in assay [4], 0.2 mg/mL. Moreover, in assay [3], the Blood ethanol level was 0.2 mg/mL. The results for the Blood ethanol concentration in [5] and in [6] were 0.77 mg/mL and 0.79 mg/mL, respectively.
Turning to `C=C1C(=O)O[C@@H]2/C=C(\C)CC/C=C(\C)CC[C@@H]12` [COSTUNOLIDE], the Serum glucose in assay [7] was 179 mg/dL; in assay [8] it was 112 mg/dL; in [10] it was 150 mg/dL; in assay [11] it was 151 mg/dL; in [13], 117 mg/dL; in assay [16] it was 171 mg/dL. In addition, the Inhibition came to 25.5% in assay [9], 62.1% in assay [12], 42.1% in assay [14] and 48.2% in assay [15]. For the same compound, the Activity in assay [1] was 0.2 mg/mL; in assay [2], 0.21 mg/mL; in [4] it was 0.1 mg/mL. This compound also had a Blood ethanol level in assay [3] of 0.19 mg/mL. The values for the Blood ethanol concentration in [5] and in [6] were 0.18 mg/mL and 0.23 mg/mL, respectively.
On to `C=C1CC[C@H]2C(=C)CC[C@H]3C(=C)C(=O)O[C@@H]3[C@@H]12` [DEHYDROCOSTUSLACTONE], for which the Activity was 0.4 mg/mL in assay [1], 0.23 mg/mL in assay [2] and 0.2 mg/mL in [4]. In assay [3], this compound came in with a Blood ethanol level of 0.19 mg/mL. For the same compound, the Blood ethanol concentration in assay [5] is 0.2 mg/mL; in [6], 0.57 mg/mL.
As for `C=C1C(=O)O[C@@H]2[C@H]3C(C)=CC[C@@H](O)[C@]3(C)CC[C@@H]12` [SANTAMARIN], the Activity came to 0.43 mg/mL in [1], 0.21 mg/mL in assay [2] and 0.2 mg/mL in assay [4]. This compound yielded a Blood ethanol level in [3] of 0.18 mg/mL. Moreover, the values for the Blood ethanol concentration in [5] and in [6] were 0.2 mg/mL and 0.4 mg/mL, respectively.
For the compound `C=C1CCOC1=O` [TULIPALINE A], the Inhibition was 47.9% and 38.8% in assay [17]; 33.5% and 57.2% in assay [12]. Further, the Activity in [1] stood at 0.17 mg/mL; in assay [18], 0.32 mg/mL; in assay [19], 0.39 mg/mL; in assay [2] it was 0.1 mg/mL; in [4], 0.01 mg/mL; in [20], 0.7 mg/mL. In assay [3], this compound had a Blood ethanol level of 0.01 mg/mL. For the same compound, the Blood ethanol concentration in assay [5] is 0.04 mg/mL; in [6], 0.09 mg/mL.
